The values below come from patent publication US20230072683A1, “PYRIDO-PYRIMIDIN DERIVATIVES AND PHARMACEUTICAL COMPOSITION, FOR USE IN PREVENTING OR TREATING PI3 KINASE RELATED DISEASES, COMPRISING SAME AS ACTIVE INGREDIENT” (BORYUNG PHARMACEUTICAL CO., LTD, priority 2019, published 2023).

Like-named read-outs stand apart in the source and are kept apart here.

For assay [1], the target named is PI3K-δ (PI3K(p1108/p857) (h)) (Homo sapiens, UniProt O00329). The experiment in a line: Evaluation of inhibitory activity against PI3K-δ (HTRF kinase assay). The class given is biochemical. To be noted: for inhibition at 0.01 µM: compound concentration 0.01 μM, read-out: EXP_VALUE(% Inhibition) PI3K-δ 0.01 μM; for inhibition at 0.1 µM: read-out: EXP_VALUE(% Inhibition) PI3K-δ 0.1 μM. In a few lines: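 HTRF read-out (665/620 nm ratio ×10000) used Eu-labelled anti-GST, GST-tagged GRP1 PH domain and streptavidin-allophycocyanin after EDTA/PIP3 stop.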
Sequence of PI3K-δ (PI3K(p1108/p857) (h)) (O00329 whole entry, the tested form may be a part): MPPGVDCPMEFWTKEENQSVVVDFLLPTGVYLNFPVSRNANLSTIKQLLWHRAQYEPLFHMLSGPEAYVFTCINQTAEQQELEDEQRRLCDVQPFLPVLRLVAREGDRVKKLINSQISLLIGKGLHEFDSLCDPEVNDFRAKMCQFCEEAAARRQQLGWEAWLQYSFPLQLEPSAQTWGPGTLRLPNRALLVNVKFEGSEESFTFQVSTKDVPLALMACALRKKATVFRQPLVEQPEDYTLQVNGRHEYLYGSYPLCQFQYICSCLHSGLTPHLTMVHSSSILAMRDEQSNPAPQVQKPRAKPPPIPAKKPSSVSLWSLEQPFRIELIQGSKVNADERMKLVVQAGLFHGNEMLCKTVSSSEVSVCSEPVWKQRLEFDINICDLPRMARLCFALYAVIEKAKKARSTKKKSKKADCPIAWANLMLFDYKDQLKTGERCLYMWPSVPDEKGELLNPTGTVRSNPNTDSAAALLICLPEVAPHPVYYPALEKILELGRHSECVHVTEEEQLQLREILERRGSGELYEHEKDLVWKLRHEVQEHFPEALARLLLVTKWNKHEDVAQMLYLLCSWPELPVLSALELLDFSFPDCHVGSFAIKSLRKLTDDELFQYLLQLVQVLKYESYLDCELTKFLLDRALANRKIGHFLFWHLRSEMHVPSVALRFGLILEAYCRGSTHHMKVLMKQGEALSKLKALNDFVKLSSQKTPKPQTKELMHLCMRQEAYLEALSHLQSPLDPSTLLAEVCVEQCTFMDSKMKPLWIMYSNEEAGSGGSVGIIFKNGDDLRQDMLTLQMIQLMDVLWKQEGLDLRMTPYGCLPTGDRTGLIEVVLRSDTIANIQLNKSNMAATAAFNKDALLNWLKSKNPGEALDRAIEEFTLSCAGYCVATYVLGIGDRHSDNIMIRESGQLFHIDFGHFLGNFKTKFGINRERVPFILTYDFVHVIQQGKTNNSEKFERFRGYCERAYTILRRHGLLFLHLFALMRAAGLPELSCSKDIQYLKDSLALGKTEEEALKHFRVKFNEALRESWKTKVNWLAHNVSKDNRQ
Sequence of PI3K-δ (PI3K(p1108/p857) (h)) (P27986 whole entry partner, the tested form may be a part): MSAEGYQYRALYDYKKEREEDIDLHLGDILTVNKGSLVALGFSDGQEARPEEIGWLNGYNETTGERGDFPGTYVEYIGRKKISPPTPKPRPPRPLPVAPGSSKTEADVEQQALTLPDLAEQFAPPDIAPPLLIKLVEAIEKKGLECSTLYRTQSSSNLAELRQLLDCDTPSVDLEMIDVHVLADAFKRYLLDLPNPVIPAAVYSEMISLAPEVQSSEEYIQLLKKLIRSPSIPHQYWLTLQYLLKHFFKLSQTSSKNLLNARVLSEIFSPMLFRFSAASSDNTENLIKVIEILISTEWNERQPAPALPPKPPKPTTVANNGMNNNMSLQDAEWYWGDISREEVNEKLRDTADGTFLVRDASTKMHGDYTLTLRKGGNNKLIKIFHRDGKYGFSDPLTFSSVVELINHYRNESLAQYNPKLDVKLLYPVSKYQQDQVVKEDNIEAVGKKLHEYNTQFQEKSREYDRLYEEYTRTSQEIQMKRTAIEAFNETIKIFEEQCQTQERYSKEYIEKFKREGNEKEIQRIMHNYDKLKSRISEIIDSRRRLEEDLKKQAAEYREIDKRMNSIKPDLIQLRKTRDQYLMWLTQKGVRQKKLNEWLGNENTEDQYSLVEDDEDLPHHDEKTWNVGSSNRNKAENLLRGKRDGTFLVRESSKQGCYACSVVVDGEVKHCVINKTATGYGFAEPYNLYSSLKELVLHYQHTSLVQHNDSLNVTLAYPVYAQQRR
Background: TR-FRET usually uses a lanthanide donor and a delayed reading to cut background.

Assay [2] addresses DNA-PK(h) (Homo sapiens, UniProt P78527). The experiment in a line: Evaluation of inhibitory activity against DNA-PK (HTRF kinase assay, GST-cMyc-p53 substrate). It is filed as biochemical. The note with it: for inhibition at 0.01 µM: compound concentration 0.01 μM, read-out: EXP_VALUE(% Inhibition) DNA-PK(h) 0.01 μM; for inhibition at 0.1 µM: read-out: EXP_VALUE(% Inhibition) DNA-PK(h) 0.1 μM. In a few lines: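 p53 Ser15 phosphorylation by human DNA-PK was measured by time-resolved FRET ratio (665/620 nm ×10000) using Eu-labelled anti-phospho-Ser15 and d2 anti-GST antibodies. Substrate GST-cMyc-p53 at 50 μM; Mg/ATP-initiated, 30 min at room temperature, EDTA stop.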

Broadly, the inhibition is the change of the read-out against control, counted positive when it falls. For `C[C@H](Nc1ncnc2[nH]ccc(=O)c12)c1c(Cl)c2cccc(-c3ccco3)c2c(=O)n1-c1ccccc1` [Example 117, (S)-4-((1-(4-chloro-8-(furan-2-yl)-1-oxo-2-phenyl-1,2-dihydroisoquinolin-3-yl)ethyl)amino)pyrido[2,3-d]pyrimidin-5(8H)-one], the inhibition at 0.01 µM in assay [1] is 82%; in assay [2] it was 86%. For the same compound, the values for the inhibition at 0.1 µM in assay [1] (compound concentration 0.1 μM) and in assay [2] (compound concentration 0.1 μM) were 89% and 99%, respectively.
The corresponding values for `C[C@H](Nc1ncnc2[nH]ccc(=O)c12)c1c(Cl)c2cccc(N3CCCC3)c2c(=O)n1-c1ccccc1` [Example 252, (S)-4-((1-(4-chloro-1-oxo-2-phenyl-8-(pyrrolidin-1-yl)-1,2-dihydroisoquinolin-3-yl)ethyl)amino)pyrido[2,3-d]pyrimidin-5(8H)-one] are 53%, 4%, 97% and 42%.
On the same counts, the results for `C[C@H](Nc1ncnc2[nH]ccc(=O)c12)c1c(Cl)c2cccc(N3CCC4CCCCC4C3)c2c(=O)n1-c1ccccc1` (stereo partly drawn) [Example 328, 4′-chloro-3′-((S)-1-((5-oxo-5,8-dihydropyrido[2,3-d]pyrimidin-4-yl)amino)ethyl)-2′-phenyl-3,4,4a,5,6,7,8,8a-octahydro-1H-[2,8′-biisoquinolin]-1′(2′H)-one] are 17%, 2%, 42% and 12%.
For the compound `Cc1c[nH]nc1-c1cccc2c(Cl)c([C@H](C)Nc3ncnc4[nH]ccc(=O)c34)n(-c3ccccc3)c(=O)c12` [Example 244, (S)-4-((1-(4-chloro-8-(4-methyl-1H-pyrazol-3-yl)-1-oxo-2-phenyl-1,2-dihydroisoquinolin-3-yl)ethyl)amino)pyrido[2,3-d]pyrimidin-5(8H)-one], the inhibition at 0.01 µM came out at 65% in assay [1] and 7% in assay [2].
On the same counts, the results for `C[C@H](Nc1ncnc2[nH]ccc(=O)c12)c1c(Cl)c2cccc(C(=O)NCc3cccs3)c2c(=O)n1-c1ccccc1` [Example 278, (S)-4-chloro-1-oxo-3-(1-((5-oxo-5,8-dihydropyrido[2,3-d]pyrimidin-4-yl)amino)ethyl)-2-phenyl-N-(thiophen-2-ylmethyl)-1,2-dihydroisoquinoline-8-carboxamide] are 104% and 6%.
In the case of `C[C@H](Nc1ncnc2[nH]ccc(=O)c12)c1c(Cl)c2cccc(-n3cccn3)c2c(=O)n1-c1ccccc1` [Example 320, (S)-4-((1-(4-chloro-1-oxo-2-phenyl-8-(1H-pyrazol-1-yl)-1,2-dihydroisoquinolin-3-yl)ethyl)amino)pyrido[2,3-d]pyrimidin-5(8H)-one], the inhibition at 0.01 µM in assay [1] came out at 35.9%; in assay [2], 12.3%. Moreover, the inhibition at 0.1 µM in assay [1] (compound concentration 0.1 μM) worked out at 83.3%; in assay [2] (compound concentration 0.1 μM), 57.3%.
On the same counts, the results for `Cc1cc(-c2cccc3c(Cl)c([C@H](C)Nc4ncnc5[nH]ccc(=O)c45)n(-c4ccccc4)c(=O)c23)ccc1F` [Example 128, (S)-4-((1-(4-chloro-8-(4-fluoro-3-methylphenyl)-1-oxo-2-phenyl-1,2-dihydroisoquinolin-3-yl)ethyl)amino)pyrido[2,3-d]pyrimidin-5(8H)-one] are 101%, 59%, 105% and 97%.
On the same counts, the results for `C[C@H](Nc1ncnc2[nH]ccc(=O)c12)c1c(Cl)c2cccc(N3CC4CC=CCC4C3)c2c(=O)n1-c1ccccc1` (stereo partly drawn) [Example 8, 4-(((1S)-1-(4-chloro-1-oxo-2-phenyl-8-(3a, 4,7,7a-tetrahydro-1H-isoindol-2 (3H)-yl)-1,2-dihydroisoquinolin-3-yl)ethyl)amino)pyrido[2,3-d]pyrimidin-5(8H)-one] are 36%, 12%, 76% and 28%.
Consider `C[C@H](Nc1ncnc2[nH]ccc(=O)c12)c1c(Cl)c2cccc(C(C)(C)O)c2c(=O)n1-c1ccccc1` [Example 360, (S)-4-((1-(4-chloro-8-(2-hydroxypropan-2-yl)-1-oxo-2-phenyl-1,2-dihydroisoquinolin-3-yl)ethyl)amino)pyrido[2,3-d]pyrimidin-5(8H)-one], for which the results for the inhibition at 0.01 µM in assay [1] and in assay [2] were 6% and -4%, respectively.
Regarding `C[C@H](Nc1ncnc2[nH]ccc(=O)c12)c1c(Cl)c2cccc(N3CCC(N4CCCCC4)CC3)c2c(=O)n1-c1ccccc1` [Example 10, (S)-4-((1-(8-([1,4′-bipiperidin]-1′-yl)-4-chloro-1-oxo-2-phenyl-1,2-dihydroisoquinolin-3-yl)ethyl)amino)pyrido[2,3-d]pyrimidin-5(8H)-one], the figures for the inhibition at 0.01 µM in assay [1] and in assay [2] were 40% and 15%, respectively. The inhibition at 0.1 µM came to 70% in assay [1] (compound concentration 0.1 μM) and 73% in assay [2] (compound concentration 0.1 μM).
Turning to `C[C@H](Nc1ncnc2[nH]ccc(=O)c12)c1c(Cl)c2cccc(/C=C/c3ccccc3)c2c(=O)n1-c1ccccc1` [Example 70, (S,E)-4-((1-(4-chloro-1-oxo-2-phenyl-8-styryl-1,2-dihydroisoquinolin-3-yl)ethyl)amino)pyrido[2,3-d]pyrimidin-5(8H)-one], the results for the inhibition at 0.01 µM in assay [1] and in assay [2] were 10.2% and -1.2%, respectively. Besides, the values for the inhibition at 0.1 µM in assay [1] (compound concentration 0.1 μM) and in assay [2] (compound concentration 0.1 μM) were 29.9% and 23.6%, respectively.
With `C[C@H](Nc1ncnc2[nH]ccc(=O)c12)c1c(Cl)c2cccc(C(=O)NCc3ccccc3)c2c(=O)n1-c1ccccc1` [Example 280, (S)—N-benzyl-4-chloro-1-oxo-3-(1-((5-oxo-5,8-dihydropyrido[2,3-d]pyrimidin-4-yl)amino)ethyl)-2-phenyl-1,2-dihydroisoquinoline-8-carboxamide], the figures for the inhibition at 0.01 µM in assay [1] and in assay [2] were 91% and 15%, respectively.
Turning to `C[C@H](Nc1ncnc2[nH]ccc(=O)c12)c1c(Cl)c2cccc(Sc3nc[nH]n3)c2c(=O)n1-c1ccccc1` [Example 400, (S)-4-((1-(8-((1H-1,2,4-triazol-3-yl)thio)-4-chloro-1-oxo-2-phenyl-1,2-dihydroisoquinolin-3-yl)ethyl)amino)pyrido[2,3-d]pyrimidin-5(8H)-one], the inhibition at 0.1 µM in assay [1] (compound at 0.1 μM) was 16%; in assay [2] (compound at 0.1 μM) it was -2%.
`C[C@H](Nc1ncnc2[nH]ccc(=O)c12)c1c(Cl)c2cccc(C=O)c2c(=O)n1-c1ccccc1` [Example 271, (S)-4-chloro-1-oxo-3-(1-((5-oxo-5,8-dihydropyrido[2,3-d]pyrimidin-4-yl)amino)ethyl)-2-phenyl-1,2-dihydroisoquinolin-8-carbaldehyde]: the inhibition at 0.01 µM came to 60% in assay [1] and 19% in assay [2].
Consider `C[C@H](Nc1ncnc2[nH]ccc(=O)c12)c1c(Cl)c2cccc(N(C)C3CCCCC3)c2c(=O)n1-c1ccccc1` [Example 322, (S)-4-((1-(4-chloro-8-(cyclohexyl(methyl)amino)-1-oxo-2-phenyl-1,2-dihydroisoquinolin-3-yl)ethyl)amino)pyrido[2,3-d]pyrimidin-5(8H)-one], for which the inhibition at 0.01 µM was 11% in assay [1] and -11% in assay [2]. For the same compound, the results for the inhibition at 0.1 µM in assay [1] (compound concentration 0.1 μM) and in assay [2] (compound concentration 0.1 μM) were 30% and 21%, respectively.
On the same counts, the results for `C[C@H](Nc1ncnc2[nH]ccc(=O)c12)c1c(Cl)c2cccc(C#Cc3cccnc3)c2c(=O)n1-c1ccccc1` [Example 307, (S)-4-((1-(4-chloro-1-oxo-2-phenyl-8-(pyridin-3-ylethynyl)-1,2-dihydroisoquinolin-3-yl)ethyl)amino)pyrido[2,3-d]pyrimidin-5(8H)-one] are 83%, 80%, 114% and 95%.
The corresponding values for `C[C@H](Nc1ncnc2[nH]ccc(=O)c12)c1cc2cccc(-c3nc4ccccc4o3)c2c(=O)n1-c1ccccc1` [Example 318, (S)-4-((1-(8-(benzo[d]oxazol-2-yl)-1-oxo-2-phenyl-1,2-dihydroisoquinolin-3-yl)ethyl)amino)pyrido[2,3-d]pyrimidin-5(8H)-one] are 23%, 19%, 65% and 35%.
On the same counts, the results for `C[C@H](Nc1ncnc2[nH]ccc(=O)c12)c1c(Cl)c2cccc(-c3ccc4ncn(C)c4c3)c2c(=O)n1-c1ccccc1` [Example 111, (S)-4-((1-(4-chloro-8-(1-methyl-1H-benzo[d]imidazol-6-yl)-1-oxo-2-phenyl-1,2-dihydroisoquinolin-3-yl)ethyl)amino)pyrido[2,3-d]pyrimidin-5(8H)-one] are 80%, 87%, 96% and 98%.
On to `C[C@H](Nc1ncnc2[nH]ccc(=O)c12)c1c(Cl)c2cccc(S(=O)(=O)c3ccncc3)c2c(=O)n1-c1ccccc1` [Example 391, (S)-4-((1-(4-chloro-1-oxo-2-phenyl-8-(pyridin-4-ylsulfonyl)-1,2-dihydroisoquinolin-3-yl)ethyl)amino)pyrido[2,3-d]pyrimidin-5(8H)-one], for which the inhibition at 0.1 µM in assay [1] (compound at 0.1 μM) was found to be 98%; in assay [2] (compound at 0.1 μM), 22%.
